Assay results from the supplement of paper PMC10307832.

What was measured:
Experiment in all cases: relative viability (nuclei count vs DMSO), 5 days (fraction); higher = more cells survive
[1] = compound: O=C(c1cc(Cc2n[nH]c(=O)c3ccccc23)ccc1F)N1CCN(C(=O)C2CC2)CC1 [Olaparib] + CS(=O)(=O)CCNCc1ccc(-c2ccc3ncnc(Nc4ccc(OCc5cccc(F)c5)c(Cl)c4)c3c2)o1 [Lapatinib] (partner 2 µM)
Method in brief: (§1)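 Medians of duplicate plates are given as relative viability. That measure is the nuclei count in treated wells divided by the count in vehicle wells. Counts were taken on 4× images of lung cancer cell lines in 1536-well plates, 5 days after pin-tool dosing the day after seeding with one drug alone or a fixed anchor-drug dose plus five library-drug doses (not always all listed) in √10 steps.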

[2] = compound: O=C(c1cc(Cc2n[nH]c(=O)c3ccccc23)ccc1F)N1CCN(C(=O)C2CC2)CC1 [Olaparib] + CC(=O)Nc1cccc(-n2c(=O)n(C3CC3)c(=O)c3c(Nc4ccc(I)cc4F)n(C)c(=O)c(C)c32)c1 [Trametinib] (partner 0.02 µM)
Method in brief: as §1

[3] = compound: C[C@@H](Oc1cc(-c2cnn(C3CCNCC3)c2)cnc1N)c1c(Cl)ccc(F)c1Cl [Crizotinib] + Cc1cc(Nc2cc(N3CCN(C)CC3)nc(Sc3ccc(NC(=O)C4CC4)cc3)n2)n[nH]1 [Tozasertib] (partner 0.1 µM)
Method in brief: as §1

[4] = compound: CC(C)C[C@H](NC(=O)[C@H](CCc1ccccc1)NC(=O)CN1CCOCC1)C(=O)N[C@@H](Cc1ccccc1)C(=O)N[C@@H](CC(C)C)C(=O)[C@@]1(C)CO1 [Carfilzomib] + CCNC(=O)c1noc(-c2cc(C(C)C)c(O)cc2O)c1-c1ccc(CN2CCOCC2)cc1 [Luminespib] (partner 0.01 µM)
Method in brief: as §1

Cell Line | relative viability ([1]; first compound 0.08 µM) | relative viability ([1]; first compound 0.253 µM) | relative viability ([1]; first compound 2.53 µM) | relative viability ([1]; first compound 8 µM) | relative viability ([2]; first compound 0.08 µM) | relative viability ([2]; first compound 0.253 µM) | relative viability ([2]; first compound 2.53 µM) | relative viability ([2]; first compound 8 µM) | relative viability ([3]; first compound 0.01 µM) | relative viability ([3]; first compound 0.03162 µM) | relative viability ([3]; first compound 0.1 µM) | relative viability ([3]; first compound 0.3162 µM) | relative viability ([3]; first compound 1 µM) | relative viability ([4]; first compound 0.001 µM) | relative viability ([4]; first compound 0.003162 µM) | relative viability ([4]; first compound 0.01 µM) | relative viability ([4]; first compound 0.03162 µM) | relative viability ([4]; first compound 0.1 µM)
NCI-H1944 | 0.781 | 0.663 | 0.668 | 0.627 | 0.435 | 0.376 | 0.372 | 0.328 | 0.254 | 0.248 | 0.252 | 0.247 | 0.254 | 0.698 | 0.774 | 0.707 | 0.732 | 0.205
NCI-H1975 | 0.999 | 0.844 | 0.808 | 0.786 | 0.329 | 0.349 | 0.395 | 0.307 | 0.644 | 0.705 | 0.782 | 0.705 | 0.746 | 0.2 | 0.185 | 0.261 | 0.167 | 0.16
NCI-H1993 | 0.932 | 0.779 | 0.855 | 0.77 | 0.559 | 0.57 | 0.517 | 0.384 | 0.558 | 0.538 | 0.552 | 0.588 | 0.588 | 0.9 | 0.932 | 0.983 | 0.71 | 0.462
NCI-H2009 | 0.934 | 0.975 | 0.884 | 0.606 | 0.275 | 0.283 | 0.315 | 0.267 | 0.746 | 0.712 | 0.731 | 0.678 | 0.665 | 1.1 | 1.06 | 1.03 | 1.08 | 0.121
NCI-H2023 | 1.08 | 0.755 | 0.763 | 0.691 | 0.59 | 0.514 | 0.525 | 0.489 | 0.356 | 0.284 | 0.293 | 0.241 | 0.271 | 0.81 | 0.795 | 0.626 | 0.362 | 0.0768
NCI-H2085 | 0.968 | 0.711 | 0.737 | 0.618 | 0.619 | 0.528 | 0.504 | 0.523 | 0.763 | 0.801 | 0.775 |  | 0.884 | 0.505 | 0.472 | 0.359 | 0.205 | 0.189
NCI-H2087 | 1.08 | 0.997 | 0.892 | 0.632 | 0.219 | 0.208 | 0.215 | 0.188 | 0.254 | 0.213 | 0.254 |  | 0.274 | 0.212 | 0.146 | 0.215 | 0.0619 | 0.0448
NCI-H2126 | 0.845 | 0.766 | 0.759 | 0.784 | 0.527 | 0.55 | 0.584 | 0.596 | 0.721 | 0.813 | 0.819 | 0.8 | 0.808 | 0.875 | 0.999 | 0.938 | 0.744 | 0.465
NCI-H2170 | 0.29 | 0.259 | 0.269 | 0.279 | 0.937 | 0.925 | 0.883 | 0.8 | 0.683 | 0.793 | 0.669 | 0.792 | 0.681 | 0.635 | 0.666 | 0.612 | 0.579 | 0.311
NCI-H2228 | 1.28 | 0.879 | 0.835 | 0.765 | 0.609 | 0.344 | 0.495 | 0.521 | 0.237 | 0.229 | 0.172 | 0.209 | 0.182 | 0.145 | 0.152 | 0.161 | 0.123 | 0.144
NCI-H2347 | 0.972 | 0.949 | 0.957 | 0.767 | 0.282 | 0.274 | 0.274 | 0.248 | 0.462 | 0.564 | 0.615 | 0.527 | 0.422 | 0.509 |  | 0.266 | 0.346 | 0.201
NCI-H2405 | 1.41 | 1.06 | 0.924 | 0.972 | 0.767 | 0.597 | 0.677 | 0.641 | 0.702 | 0.811 | 0.761 | 0.706 | 0.697 |  | 0.873 | 0.851 | 0.759 | 0.32
NCI-H3122 | 1.02 | 0.934 | 0.936 | 0.946 | 0.219 | 0.238 | 0.241 | 0.203 | 0.404 | 0.34 | 0.457 | 0.181 | 0.154 | 0.064 | 0.0963 | 0.106 | 0.107 | 0.106
PC-3 [JPC-3] | 0.558 | 0.417 | 0.429 | 0.463 | 0.777 |  | 0.712 | 0.744 | 0.834 | 0.878 | 0.934 | 0.836 | 0.855 | 0.754 | 0.706 | 0.742 | 0.646 | 0.331
PC-14 | 0.368 | 0.319 | 0.298 | 0.307 | 0.937 | 0.646 | 0.434 | 0.456 | 0.545 | 0.625 | 0.624 | 0.593 | 0.602 | 0.143 | 0.176 | 0.18 | 0.117 | 0.109
RERF-LC-KJ | 0.872 | 0.831 | 0.971 | 0.872 | 0.98 | 0.825 | 0.949 | 0.878 | 0.455 | 0.516 | 0.49 | 0.477 | 0.527 | 1.24 | 1.29 | 1.32 | 0.609 | 0.224
